Data reported in patent publication US10752624B2, “Kinase inhibitors” (Origenis GmbH, priority 2012, dated 2020).

Legend:
SYK kinase = target: T1, SYK kinase (Homo sapiens, UniProt P43405); experiment: SYK Assay (OMNIA Kinase Assay, SOX peptide fluorescence); assay type: biochemical; details: 1 mM ATP, 10 μM Omnia Peptide Substrate Tyr 7, 30° C., readings for 30 minutes; read-out: SYK Activities: IC50
T1 construct: purchased Invitrogen, Carlsbad
Method: In the assay OMNIA® KINASE ASSAY by Invitrogen Corporation (Carlsbad) the effect of invention of a compound on the phosphorylation is determined by measurement of fluorescence intensity of a chelation-enhanced fluorophore called SOX. Upon phosphorylation of the peptide by the kinase of interest, Mg2+ is chelated to form a bridge between the SOX moiety and the phosphate group that is transferred to the specific tyrosine on the peptide. The fluorescence intensity is directly proportional to the amount of peptide phosphorylation.
To the wells of an 384 well small volume plate (Greiner, Frickenhausen) are added (i) the compound under test in 5% DMSO/distilled water (2 μl), (ii) 16 μl of the master mix containing ATP, DTT, Kinase Reaction Buffer, Omina Peptide Substrate Tyr 7 resulting in a final concentration of 1 mM ATP, 0.2 mM DTT and 10 μM Peptide Substrate.
The Master Mix and the assay plate was incubated to reaction temperature before the measurement (30° C.). The reaction was started with addition of (iii) 2 μl 4 μg/ml SYK kinase (Invitrogen, Carlsbad). During measurement fluorescence intensity readings were collected using a TECAN M1000 at a wavelength of λex 360/λem 485 nm every 30 s for 30 minutes. The reaction velocity was plotted versus the inhibitor concentration to determine the IC50 using XLFit 5.0 (IDBS, Guildford) to fit to a sigmoidal dose response curve.

LRRK2 = LRRK2 (Homo sapiens, UniProt Q5S007); experiment: LRRK2-LRRK2 G2019S-Assay (LanthaScreen Eu Kinase Binding Assay); details: 5 nM LRRK2, 10 nM tracer 236, 2 nM EU-Anti-GST antibody, 1 h at RT; read-out: LRRK2 Activities: IC50
Chain of LRRK2 (Q5S007 970-2527 limits assumed): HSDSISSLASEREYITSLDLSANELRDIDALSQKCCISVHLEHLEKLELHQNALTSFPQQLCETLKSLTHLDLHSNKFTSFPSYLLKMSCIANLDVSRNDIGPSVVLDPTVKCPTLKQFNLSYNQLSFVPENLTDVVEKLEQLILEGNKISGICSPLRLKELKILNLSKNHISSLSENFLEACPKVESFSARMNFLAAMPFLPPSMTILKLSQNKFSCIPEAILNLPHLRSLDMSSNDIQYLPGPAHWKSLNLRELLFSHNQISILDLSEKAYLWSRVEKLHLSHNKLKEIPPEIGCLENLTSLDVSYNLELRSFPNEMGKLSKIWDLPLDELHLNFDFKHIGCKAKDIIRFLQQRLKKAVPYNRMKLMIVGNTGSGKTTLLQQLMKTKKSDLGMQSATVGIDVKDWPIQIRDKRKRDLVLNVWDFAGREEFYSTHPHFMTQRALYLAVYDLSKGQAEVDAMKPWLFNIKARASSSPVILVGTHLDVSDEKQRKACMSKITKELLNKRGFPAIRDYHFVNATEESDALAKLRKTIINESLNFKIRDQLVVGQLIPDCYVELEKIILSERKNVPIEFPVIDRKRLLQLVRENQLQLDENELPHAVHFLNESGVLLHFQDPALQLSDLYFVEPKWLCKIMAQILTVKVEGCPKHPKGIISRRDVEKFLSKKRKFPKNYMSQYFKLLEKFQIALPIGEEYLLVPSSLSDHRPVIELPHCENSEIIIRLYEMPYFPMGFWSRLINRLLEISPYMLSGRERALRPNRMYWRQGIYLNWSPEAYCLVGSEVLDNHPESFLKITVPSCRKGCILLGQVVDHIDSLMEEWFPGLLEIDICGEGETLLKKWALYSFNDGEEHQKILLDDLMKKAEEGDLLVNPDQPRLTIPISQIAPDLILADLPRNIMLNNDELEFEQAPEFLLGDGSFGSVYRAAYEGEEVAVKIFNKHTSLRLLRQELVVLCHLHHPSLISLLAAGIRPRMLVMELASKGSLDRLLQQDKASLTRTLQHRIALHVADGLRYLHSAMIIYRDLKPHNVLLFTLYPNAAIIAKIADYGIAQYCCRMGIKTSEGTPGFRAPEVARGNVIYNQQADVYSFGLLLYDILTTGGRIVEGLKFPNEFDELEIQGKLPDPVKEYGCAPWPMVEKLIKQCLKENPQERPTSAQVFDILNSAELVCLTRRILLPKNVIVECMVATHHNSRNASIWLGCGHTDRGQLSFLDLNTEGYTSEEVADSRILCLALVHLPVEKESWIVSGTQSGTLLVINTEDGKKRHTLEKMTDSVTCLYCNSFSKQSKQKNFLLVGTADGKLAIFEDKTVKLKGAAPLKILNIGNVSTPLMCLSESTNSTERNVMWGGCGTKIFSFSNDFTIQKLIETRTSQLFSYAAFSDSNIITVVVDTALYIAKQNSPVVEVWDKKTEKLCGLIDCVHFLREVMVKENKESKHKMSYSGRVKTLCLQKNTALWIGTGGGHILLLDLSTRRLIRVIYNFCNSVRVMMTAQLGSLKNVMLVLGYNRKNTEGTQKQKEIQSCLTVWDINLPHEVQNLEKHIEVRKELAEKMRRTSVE
Method in brief: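 Compound competition with Alexa Fluor 647 tracer 236 (10 nM) was measured after 1 h at room temperature, using 5 nM LRRK2 (wild type or mutant) bound to 2 nM Eu-anti-GST antibody. IC50 was derived from the acceptor/donor (665/615 nm) ratio using a variable-slope dose-response fit.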

Compound: CN1CCN(C2CCN(c3ccc(Nc4nc5cccc(F)c5c5cn[nH]c45)cc3)CC2)CC1 [Example 1, 9-fluoro-N-(4-(4-(4-methylpiperazin-1-yl)piperidin-1-yl)phenyl)-3H-pyrazolo[3,4-c]quinolin-4-amine]
- IC50 (SYK kinase): 0.1 to 1 µM
- IC50 (LRRK2): 0.01 to 0.1 µM

Compound: COc1ccc2nc(Nc3ccc(N4CCC(N5CCN(C)CC5)CC4)cc3)c3n[nH]cc3c2c1 [Example 3, 8-methoxy-N-(4-(4-(4-methylpiperazin-1-yl)piperidin-1-yl)phenyl)-2H-pyrazolo[3,4-c]quinolin-4-amine]
- IC50 (SYK kinase): 0.1 to 1 µM
- IC50 (LRRK2): 0.01 to 0.1 µM

Compound: COc1ccc2nc(Nc3ccc(C(=O)N4CCC(N5CCN(C)CC5)CC4)cc3)c3n[nH]cc3c2c1 [Example 6, (4-((8-methoxy-2H-pyrazolo[3,4-c]quinolin-4-yl)amino)phenyl)(4-(4-methylpiperazin-1-yl)piperidin-1-yl)methanone]
- IC50 (SYK kinase): 0.1 to 1 µM
- IC50 (LRRK2): 0.01 to 0.1 µM

Compound: Fc1cccc2nc(Nc3ccc(N4CCN(C5CC5)CC4)cc3)c3[nH]ncc3c12 [Example 10, N-(4-(4-cyclopropylpiperazin-1-yl)phenyl)-9-fluoro-3H-pyrazolo[3,4-c]quinolin-4-amine]
- IC50 (SYK kinase): 0.1 to 1 µM
- IC50 (LRRK2): 0.1 to 1 µM

Compound: COc1cccc2nc(Nc3ccc(N4CCC(N5CCN(C)CC5)CC4)cc3)c3[nH]ncc3c12 [Example 21, 9-methoxy-N-(4-(4-(4-methylpiperazin-1-yl)piperidin-1-yl)phenyl)-3H-pyrazolo[3,4-c]quinolin-4-amine]
- IC50 (SYK kinase): 0.1 to 1 µM
- IC50 (LRRK2): 0.01 to 0.1 µM

Compound: COc1ccc2nc(Nc3ccc(CN4CCC(N5CCN(C)CC5)CC4)cc3)c3n[nH]cc3c2c1 [Example 22, 8-methoxy-N-(4-((4-(4-methylpiperazin-1-yl)piperidin-1-yl)methyl)phenyl)-2H-pyrazolo[3,4-c]quinolin-4-amine]
- IC50 (SYK kinase): 0.1 to 1 µM
- IC50 (LRRK2): 0.1 to 1 µM

Compound: CSc1ccc2nc(Nc3ccc(N4CCN(C(C)=O)CC4)cc3)c3[nH]ncc3c2c1 [Example 46, 1-(4-(4-((8-(methylthio)-3H-pyrazolo[3,4-c]quinolin-4-yl)amino)phenyl)piperazin-1-yl)ethan-1-one]
- IC50 (SYK kinase): 0.1 to 1 µM
- IC50 (LRRK2): 0.01 to 0.1 µM

Compound: CSc1ccc2nc(Nc3ccc4c(c3)NC(=O)CC4)c3[nH]ncc3c2c1 [Example 47, 7-((8-(methylthio)-3H-pyrazolo[3,4-c]quinolin-4-yl)amino)-3,4-dihydroquinolin-2(1H)-one]
- IC50 (SYK kinase): < 0.01 µM
- IC50 (LRRK2): < 0.01 µM

Compound: CSc1ccc2nc(Nc3ccc(CN(C)C)cc3)c3[nH]ncc3c2c1 [Example 48, N-(4-((dimethylamino)methyl)phenyl)-8-(methylthio)-3H-pyrazolo[3,4-c]quinolin-4-amine]
- IC50 (SYK kinase): 0.01 to 0.1 µM
- IC50 (LRRK2): 0.01 to 0.1 µM

Compound: CSc1ccc2nc(Nc3ccc4c(c3)CN(C)C4)c3[nH]ncc3c2c1 [Example 49, N-(2-methylisoindolin-5-yl)-8-(methylthio)-3H-pyrazolo[3,4-c]quinolin-4-amine]
- IC50 (SYK kinase): 0.1 to 1 µM
- IC50 (LRRK2): 0.01 to 0.1 µM

Compound: O=C1CCc2ccc(Nc3nc4c(F)cccc4c4cn[nH]c34)cc2N1 [Example 54, 7-((6-fluoro-3H-pyrazolo[3,4-c]quinolin-4-yl)amino)-3,4-dihydroquinolin-2(1H)-one]
- IC50 (SYK kinase): 0.1 to 1 µM

Compound: CS(=O)(=O)c1ccc2nc(Nc3ccc(N4CCOCC4)cc3)c3[nH]ncc3c2c1 [Example 55, 8-(methylsulfonyl)-N-(4-morpholinophenyl)-3H-pyrazolo[3,4-c]quinolin-4-amine]
- IC50 (SYK kinase): < 0.01 µM
- IC50 (LRRK2): 0.01 to 0.1 µM

Compound: COc1ccc2nc(Nc3ccc4[nH]c(SC)nc4c3)c3n[nH]cc3c2c1 [Example 56, 8-methoxy-N-(2-(methylthio)-1H-benzo[d]imidazol-5-yl)-2H-pyrazolo[3,4-c]quinolin-4-amine]
- IC50 (SYK kinase): 0.1 to 1 µM
- IC50 (LRRK2): 0.1 to 1 µM

Compound: COc1cccc2nc(Nc3ccc(-c4cnco4)cc3)c3[nH]ncc3c12 [Example 57, 9-methoxy-N-(4-(oxazol-5-yl)phenyl)-3H-pyrazolo[3,4-c]quinolin-4-amine]
- IC50 (SYK kinase): 0.1 to 1 µM
- IC50 (LRRK2): 0.01 to 0.1 µM

Compound: CC(=O)N1CCN(c2ccc(Nc3nc4ccc(S(C)(=O)=O)cc4c4cn[nH]c34)cc2)CC1 [Example 62, 1-(4-(4-((8-(methylsulfonyl)-3H-pyrazolo[3,4-c]quinolin-4-yl)amino)phenyl)piperazin-1-yl)ethan-1-one]
- IC50 (SYK kinase): < 0.01 µM
- IC50 (LRRK2): 0.01 to 0.1 µM

Compound: CS(=O)(=O)c1ccc2nc(Nc3ccc(C(=O)N4CCOCC4)cc3)c3[nH]ncc3c2c1 [Example 64, (4-((8-(methylsulfonyl)-3H-pyrazolo[3,4-c]quinolin-4-yl)amino)phenyl)(morpholino)methanone]
- IC50 (SYK kinase): 0.01 to 0.1 µM
- IC50 (LRRK2): 0.01 to 0.1 µM

Compound: COc1cccc2nc(Nc3cnn(C4CCOCC4)c3)c3[nH]ncc3c12 [Example 102, 9-methoxy-N-(1-(tetrahydro-2H-pyran-4-yl)-1H-pyrazol-4-yl)-3H-pyrazolo[3,4-c]quinolin-4-amine]
- IC50 (SYK kinase): 0.1 to 1 µM

Compound: CN1CCC(n2cc(Nc3nc4ccc(S(C)(=O)=O)cc4c4cn[nH]c34)cn2)CC1 [Example 114, N-(1-(1-methylpiperidin-4-yl)-1H-pyrazol-4-yl)-8-(methylsulfonyl)-3H-pyrazolo[3,4-c]quinolin-4-amine]
- IC50 (SYK kinase): < 0.01 µM

Compound: CC(=O)N1CCC(n2cc(Nc3nc4ccc(S(C)(=O)=O)cc4c4cn[nH]c34)cn2)CC1 [Example 115, 1-(4-(4-((8-(methylsulfonyl)-3H-pyrazolo[3,4-c]quinolin-4-yl)amino)-1H-pyrazol-1-yl)piperidin-1-yl)ethan-1-one]
- IC50 (SYK kinase): < 0.01 µM

Compound: COCCn1cc(Nc2nc3cccc(OC)c3c3c[nH]nc23)cn1 [Example 116, 9-methoxy-N-(1-(2-methoxyethyl)-1H-pyrazol-4-yl)-2H-pyrazolo[3,4-c]quinolin-4-amine]
- IC50 (SYK kinase): 0.1 to 1 µM

Compound: COc1cccc2nc(Nc3cnn(C4CCN(C(C)=O)CC4)c3)c3[nH]ncc3c12 [Example 117, 1-(4-(4-((9-methoxy-3H-pyrazolo[3,4-c]quinolin-4-yl)amino)-1H-pyrazol-1-yl)piperidin-1-yl)ethan-1-one]
- IC50 (SYK kinase): 0.1 to 1 µM

Compound: COc1ccc2nc(Nc3cnn(C4CCN(C)CC4)c3)c3n[nH]cc3c2c1 [Example 151, 8-methoxy-N-(1-(1-methylpiperidin-4-yl)-1H-pyrazol-4-yl)-2H-pyrazolo[3,4-c]quinolin-4-amine]
- IC50 (SYK kinase): 0.01 to 0.1 µM

Compound: COc1ccc2nc(Nc3cnn(C4CCN(C(C)=O)CC4)c3)c3n[nH]cc3c2c1 [Example 152, 1-(4-(4-((8-methoxy-2H-pyrazolo[3,4-c]quinolin-4-yl)amino)-1H-pyrazol-1-yl)piperidin-1-yl)ethan-1-one]
- IC50 (SYK kinase): 0.01 to 0.1 µM

Compound: COCCn1cc(Nc2nc3ccc(S(C)(=O)=O)cc3c3cn[nH]c23)cn1 [Example 153, N-(1-(2-methoxyethyl)-H-pyrazol-4-yl)-8-(methylsulfonyl)-3H-pyrazolo[3,4-c]quinolin-4-amine]
- IC50 (SYK kinase): 0.01 to 0.1 µM

Compound: Cc1c(Nc2nc3ccc(S(C)(=O)=O)cc3c3cn[nH]c23)cnn1C(C)C [Example 218, N-(1-isopropyl-5-methyl-1H-pyrazol-4-yl)-8-(methylsulfonyl)-3H-pyrazolo[3,4-c]quinolin-4-amine]
- IC50 (SYK kinase): 0.1 to 1 µM

Compound: COCCn1cc(Nc2nc3ccc(S(C)(=O)=O)cc3c3cn[nH]c23)c(C#N)n1 [Example 248, 1-(2-methoxyethyl)-4-((8-(methylsulfonyl)-3H-pyrazolo[3,4-c]quinolin-4-yl)amino)-1H-pyrazole-3-carbonitrile]
- IC50 (SYK kinase): 0.1 to 1 µM

Compound: COc1ccc2nc(Nc3cnn(CCF)c3)c3[nH]ncc3c2c1 [Example 291, N-(1-(2-fluoroethyl)-1H-pyrazol-4-yl)-8-methoxy-3H-pyrazolo[3,4-c]quinolin-4-amine]
- IC50 (SYK kinase): 0.1 to 1 µM

Compound: COc1cc(OC)c2nc(Nc3cnn(C(C)C)c3)c3[nH]ncc3c2c1 [Example 294, N-(1-isopropyl-1H-pyrazol-4-yl)-6,8-dimethoxy-3H-pyrazolo[3,4-c]quinolin-4-amine]
- IC50 (SYK kinase): 0.1 to 1 µM

Compound: COc1cc(OC)c2nc(Nc3cnn(C4CCN(C(C)(C)C)CC4)c3)c3[nH]ncc3c2c1 [Example 295, N-(1-(1-(tert-butyl)piperidin-4-yl)-1H-pyrazol-4-yl)-6,8-dimethoxy-3H-pyrazolo[3,4-c]quinolin-4-amine]
- IC50 (SYK kinase): 0.01 to 0.1 µM

Compound: CS(=O)(=O)c1ccc2nc(Nc3cnn(-c4ccccn4)c3)c3n[nH]cc3c2c1 [Example 341, 8-(methylsulfonyl)-N-(1-(pyridin-2-yl)-1H-pyrazol-4-yl)-2H-pyrazolo[3,4-c]quinolin-4-amine]
- IC50 (SYK kinase): 0.1 to 1 µM

Compound: CS(=O)(=O)c1ccc2nc(Nc3ccc(N4CCOCC4)c(C#N)c3)c3n[nH]cc3c2c1 [Example 354, 5-((8-(methylsulfonyl)-2H-pyrazolo[3,4-c]quinolin-4-yl)amino)-2-morpholinobenzonitrile]
- IC50 (SYK kinase): 0.01 to 0.1 µM

Compound: Brc1cccc2c1nc(Nc1cnn(C3CCOCC3)c1)c1[nH]ncc12 [Example 355, 6-bromo-N-(1-(tetrahydro-2H-pyran-4-yl)-1H-pyrazol-4-yl)-3H-pyrazolo[3,4-c]quinolin-4-amine]
- IC50 (SYK kinase): 0.01 to 0.1 µM
